Literature values, collected in PubChem BioAssay AID1259409 (Chemical Carcinogenesis Research Information System (CCRIS), 2018).

System: rodent chemically induced tumor inhibition, incidence and multiplicity
Assay: CCRIS tumor inhibitor studies

Question: Which results are given for `Cc1cc(C(C)(C)C)c(O)c(C(C)(C)C)c1`?
Answer: tumour outcome (control, treated, inhibition, significance) (Carcinogen: 7,12-DIMETHYLBENZ[A]ANTHRACENE, 57-97-6, Dose [Inhibitor]: 200 MG ML 1 ML IN OLIVE OIL ONCE (STUDY DURATION: 18 WK), Route [Inhibitor]: GAVAGE, Species: RAT, Strain/Sex: SPRAGUE-DAWLEY/FEMALE, Target Tissue: Type of Lesion: MAMMARY GLAND: TUMOR, Dose [Carcinogen]: 12 MG IN 1 ML OLIVE OIL ADMINISTERED 1 HR AFTER INHIBITOR, Promoter: NONE USED): 27/34 (79%), 5/18 (28%), 64%, p<0.01; tumour outcome (control, treated, inhibition, significance) (Carcinogen: 7,12-DIMETHYLBENZ[A]ANTHRACENE, 57-97-6, Dose [Inhibitor]: 1000 UG APPLIED 6 HR BEFORE, 5 MIN BEFORE, AND 6 HR AFTER DMBA (STUDY DURATION: 28 WK), Route [Inhibitor]: DERMAL, Species: MOUSE, Strain/Sex: CD-1/FEMALE, Target Tissue: Type of Lesion: SKIN: PAPILLOMA, Dose [Carcinogen]: 2.56 UG APPLIED ONCE 5 MIN AFTER INHIBITOR, Promoter: 12-O-TETRADECANOYLPHORBOL-13-ACETATE, 16561-29-8): (82%, 35%, 57%, not calculated; tumour outcome (control, treated, inhibition, significance) (Carcinogen: 7,12-DIMETHYLBENZ[A]ANTHRACENE, 57-97-6, Dose [Inhibitor]: 1000 UG APPLIED ONCE 5 MIN BEFORE DMBA (STUDY DURATION 28 WK), Route [Inhibitor]: DERMAL, Species: MOUSE, Strain/Sex: CD-1/FEMALE, Target Tissue: Type of Lesion: SKIN: PAPILLOMA, Dose [Carcinogen]: 2.56 UG APPLIED ONCE 5 MIN AFTER INHIBITOR, Promoter: 12-O-TETRADECANOYLPHORBOL-13-ACETATE, 16561-29-8): 82%, 57%, 30%, not calculated; tumour outcome (control, treated, inhibition, significance) (Carcinogen: 7,12-DIMETHYLBENZ[A]ANTHRACENE, 57-97-6, Dose [Inhibitor]: 2500 MG/KG IN DIET STARTING 2 WK BEFORE UNTIL 1 WK AFTER CARCINOGEN ADMINISTRATION (STUDY DURATION: 32 WK), Route [Inhibitor]: ORAL, Species: RAT, Strain/Sex: SPRAGUE-DAWLEY/FEMALE, Target Tissue: Type of Lesion: MAMMARY GLAND: TUMOR, Dose [Carcinogen]: 8 MG IN 1 ML SESAME OIL ADMINISTERED ONCE, Promoter: NONE USED): 88%, 68%, 23%, not significant; tumour outcome (control, treated, inhibition, significance) (Carcinogen: BENZO[A]PYRENE, 50-32-8, Dose [Inhibitor]: 5 MG/G DIET IN SESAME OIL (4%) 3/WK FOR 28 D SIMULTANEOUSLY WITH CARCINOGEN (STUDY DURATION: 21 WK), Route [Inhibitor]: ORAL, Species: MOUSE, Strain/Sex: A/HEJ/FEMALE, Target Tissue: Type of Lesion: FORESTOMACH: TUMOR, Dose [Carcinogen]: 1 MG/G DIET IN 4% SESAME OIL IN DIET 3/WK FOR 28 D, Promoter: NONE USED): 12/12 (100%), 2/9 (22%), 78%, p<0.001; tumour outcome (control, treated, inhibition, significance) (Carcinogen: BENZO[A]PYRENE, 50-32-8, Dose [Inhibitor]: 10 MG/G DIET 3/WK FOR 28 D SIMULTANEOUSLY WITH CARCINOGEN (STUDY DURATION: 28 WK), Route [Inhibitor]: ORAL, Species: MOUSE, Strain/Sex: ICR/FEMALE, Target Tissue: Type of Lesion: FORESTOMACH: TUMOR, Dose [Carcinogen]: 0.3 MG/G DIET 3/WK FOR 28 D, Promoter: NONE USED): 13/19 (68%), 10/20 (50%), 26%, not significant; tumour outcome (control, treated, inhibition, significance) (Carcinogen: DIETHYLNITROSAMINE, 55-18-5, Dose [Inhibitor]: 0, 50 MG/KG IN CORN OIL FOR DURATION OF STUDY BEGINNING 7 D PRIOR TO FIRST CARCINOGEN DOSE (STUDY DURATION: 6 MO), Route [Inhibitor]: GAVAGE, Species: RAT, Strain/Sex: BD6/FEMALE, Target Tissue: Type of Lesion: ESOPHAGUS: TUMOR, Dose [Carcinogen]: 80 MG/KG BW 1/WK FOR 6 WK, Promoter: NONE USED): 14%, 0%, 100%, not significant; tumour outcome (control, treated, inhibition, significance) (Carcinogen: DIETHYLNITROSAMINE, 55-18-5, Dose [Inhibitor]: 0, 50 MG/KG IN CORN OIL FOR DURATION OF STUDY BEGINNING 7 D PRIOR TO FIRST CARCINOGEN DOSE (STUDY DURATION: 6 MO), Route [Inhibitor]: GAVAGE, Species: RAT, Strain/Sex: BD6/FEMALE, Target Tissue: Type of Lesion: ESOPHAGUS: TUMOR, Dose [Carcinogen]: 80 MG/KG BW 1/WK FOR 8 WK, Promoter: NONE USED): 20%, 4%, 80%, not significant; tumour outcome (control, treated, inhibition, significance) (Carcinogen: DIETHYLNITROSAMINE, 55-18-5, Dose [Inhibitor]: 0, 50 MG/KG IN CORN OIL FOR DURATION OF STUDY BEGINNING 7 D PRIOR TO FIRST CARCINOGEN DOSE (STUDY DURATION: 6 MO), Route [Inhibitor]: GAVAGE, Species: RAT, Strain/Sex: BD6/FEMALE, Target Tissue: Type of Lesion: LIVER: TUMOR, Dose [Carcinogen]: 80 MG/KG BW 1/WK FOR 6 WK, Promoter: NONE USED): 52%, 23%, 56%, not significant; tumour outcome (control, treated, inhibition, significance) (Carcinogen: DIETHYLNITROSAMINE, 55-18-5, Dose [Inhibitor]: 0, 50 MG/KG IN CORN OIL FOR DURATION OF STUDY BEGINNING 7 D PRIOR TO FIRST CARCINOGEN DOSE (STUDY DURATION: 6 MO), Route [Inhibitor]: GAVAGE, Species: RAT, Strain/Sex: BD6/FEMALE, Target Tissue: Type of Lesion: LIVER: TUMOR, Dose [Carcinogen]: 80 MG/KG BW 1/WK FOR 8 WK, Promoter: NONE USED): 83%, 72%, 13%, not significant; tumour outcome (control, treated, inhibition, significance) (Carcinogen: HYDRAZINE SULFATE, 10034-93-2, Dose [Inhibitor]: 5000 PPM IN DIET STARTING 1 WK PRIOR TO ADMINISTRATION OF CARCINOGEN UNTIL END OF EXPERIMENT (STUDY DURATION: APPROXIMAT, Route [Inhibitor]: ORAL, Species: MOUSE, Strain/Sex: SWISS/MALE, FEMALE, Target Tissue: Type of Lesion: LIVER AND LUNG: COMBINED TUMORS, Dose [Carcinogen]: 1.1 MG/D 5 D/WK UNTIL 12 MO OF AGE, Promoter: NONE USED): 24/29 (83%), 19/28 (68%), 18%, not significant; tumour outcome (control, treated, inhibition, significance) (Carcinogen: ISONIAZID, 54-85-3, Dose [Inhibitor]: 5000 PPM IN DIET STARTING 1 WK PRIOR TO ADMINISTRATION OF CARCINOGEN UNTIL END OF EXPERIMENT (STUDY DURATION: APPROXIMAT, Route [Inhibitor]: ORAL, Species: MOUSE, Strain/Sex: SWISS/MALE, FEMALE, Target Tissue: Type of Lesion: LIVER AND LUNG: COMBINED TUMORS, Dose [Carcinogen]: 1.1 MG/D 5 D/WK UNTIL 25 M OF AGE, Promoter: NONE USED): 16/29 (55%), 4/20 (20%), 64%, p<0.05; tumour outcome (control, treated, inhibition, significance) (Carcinogen: ISONIAZID, 54-85-3, Dose [Inhibitor]: 5000 PPM IN DIET STARTING 1 WK PRIOR TO ADMINISTRATION OF CARCINOGEN UNTIL END OF EXPERIMENT (STUDY DURATION: APPROXIMAT, Route [Inhibitor]: ORAL, Species: MOUSE, Strain/Sex: SWISS/MALE, FEMALE, Target Tissue: Type of Lesion: LIVER AND LUNG: COMBINED TUMORS, Dose [Carcinogen]: 1.1 MG/D 5 D/WK UNTIL 25 MO OF AGE, Promoter: NONE USED): 16/29 (55%), 5/20 (25%), 54%, p<0.05; tumour outcome (control, treated, inhibition, significance) (Carcinogen: N-BIS(2-HYDROXYPROPYL)NITROSAMINE, 53609-64-6, Dose [Inhibitor]: 0, 1% IN DIET FOR 30 WK BEGINNING POST CARCINOGEN TREATMENT (STUDY DURATION: 32 WK), Route [Inhibitor]: ORAL, Species: RAT, Strain/Sex: F344/MALE, Target Tissue: Type of Lesion: BLADDER: ADENOMA, Dose [Carcinogen]: 0.1% IN DRINKING WATER FOR 2 WK, Promoter: NONE USED): 5%, 0%, 100%, not calculated; tumour outcome (control, treated, inhibition, significance) (Carcinogen: N-BIS(2-HYDROXYPROPYL)NITROSAMINE, 53609-64-6, Dose [Inhibitor]: 0, 1% IN DIET FOR 30 WK BEGINNING POST CARCINOGEN TREATMENT (STUDY DURATION: 32 WK), Route [Inhibitor]: ORAL, Species: RAT, Strain/Sex: F344/MALE, Target Tissue: Type of Lesion: KIDNEY: TUMOR, Dose [Carcinogen]: 0.1% IN DRINKING WATER FOR 2 WK, Promoter: NONE USED): 10%, 30%, -200%, not calculated
